Source: US12336981B2, “Compounds and compositions for the inhibition of NAMPT” (Valo Health, Inc., priority 2010, dated 2025)
Read-outs that look alike come from different tables or passages of the source.

Columns and labels:
A2780 cells = experiment: In-vitro cell proliferation assay (SRB), A2780 cells; type: cell-based; conditions: Homo sapiens, A2780, 72 h, A2780 cells, 72 hours, read-out: A2780 IC50
Procedure, shortened: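 Proliferation is assessed by sulforhodamine B staining following a 72-hour incubation with compound dilutions containing 0.1% DMSO.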

NAMPT = molecular target: T1, NAMPT (Homo sapiens, UniProt P43490); experiment: Biochemical inhibition assay: NAMPT enzymatic reaction, NMN quantified by mass spectrometry; conditions: read-out: Biochem IC50
T1 construct: His tag; host or cells: E. coli
T1 sequence (P43490 whole entry): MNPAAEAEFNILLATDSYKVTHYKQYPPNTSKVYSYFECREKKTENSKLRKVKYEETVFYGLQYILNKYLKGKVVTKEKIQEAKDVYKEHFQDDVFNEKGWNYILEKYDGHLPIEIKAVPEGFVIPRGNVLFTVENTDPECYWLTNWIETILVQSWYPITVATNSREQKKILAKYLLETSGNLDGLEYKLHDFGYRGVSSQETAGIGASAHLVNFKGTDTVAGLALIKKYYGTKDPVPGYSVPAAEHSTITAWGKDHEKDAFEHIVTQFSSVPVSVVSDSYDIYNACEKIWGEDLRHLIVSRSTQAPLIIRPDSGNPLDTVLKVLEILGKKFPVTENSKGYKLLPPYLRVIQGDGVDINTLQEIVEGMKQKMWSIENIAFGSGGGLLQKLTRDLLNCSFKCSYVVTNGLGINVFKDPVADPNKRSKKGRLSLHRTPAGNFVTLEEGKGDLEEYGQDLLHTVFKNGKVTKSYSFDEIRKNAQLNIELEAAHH
Procedure, shortened: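 Inhibition of E. coli-expressed His-tagged human NAMPT, measured as NMN formation by mass spectrometry after a 30 min room-temperature reaction containing 1 μM NAM, 100 μM PRPP and 2.5 mM ATP.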

SMILES	IC50 (A2780 cells; SRB) [nM]	IC50 (NAMPT; NAMPT enzymatic assay) [nM]	IC50 (A2780 cells; SRB assay) [nM]	IC50 (NAMPT; NAMPT enzymatic reaction) [nM]
CN(C)c1ccc(S(=O)(=O)c2ccc(CNC(=O)c3cc4ccncc4s3)cc2)cn1 [N-({4-[6-(dimethylamino)pyridine-3-sulfonyl]phenyl}methyl)thieno[2,3-c]pyridine-2-carboxamide]	0.6	1		
COc1ccc(OC)c(S(=O)(=O)c2ccc(CNC(=O)c3cc4ccncc4s3)cc2)c1 [N-({4-[(2,5-dimethoxybenzene)sulfonyl]phenyl}methyl)thieno[2,3-c]pyridine-2-carboxamide]	2.3	4		
O=C(NCc1ccc(S(=O)(=O)c2cc(Cl)cc(C(F)(F)F)c2)cc1)c1cnc2[nH]ncc2c1 [N-[(4-{[3-chloro-5-(trifluoromethyl)benzene]sulfonyl}phenyl)methyl]-1H-pyrazolo[3,4-b]pyridine-5-carboxamide]	2.73	7.8		
Cc1ccc(F)c(S(=O)(=O)c2ccc(CNC(=O)c3cc4cnccc4[nH]3)cc2)c1 [N-({4-[(2-fluoro-5-methylbenzene)sulfonyl]phenyl}methyl)-1H-pyrrolo[3,2-c]pyridine-2-carboxamide]			24	25
O=C(NCc1ccc(S(=O)(=O)c2ccc(Cl)c(F)c2)cc1)c1cc2ccncc2o1	6.5			18.5
O=C(NCc1ccc(S(=O)(=O)c2csc(-c3cccc(F)c3)n2)cc1)c1cc2cnccc2[nH]1 [N-({4-[2-(3-fluorophenyl)-1,3-thiazole-4-sulfonyl]phenyl}methyl)-1H-pyrrolo[3,2-c]pyridine-2-carboxamide]	23.2	19.2		
COc1ccc(C#N)cc1S(=O)(=O)c1ccc(CNC(=O)c2ccc3nccn3c2)cc1	11.9			14.6
Cc1ccc(S(=O)(=O)c2ccc(CNC(=O)c3cnc4nccn4c3)cc2)cn1 [N-{[4-(6-methylpyridine-3-sulfonyl)phenyl]methyl}imidazo[1,2-a]pyrimidine-6-carboxamide]	55.5	5.9		
Cc1cc(S(=O)(=O)c2ccc(CNC(=O)c3cc4ccncc4o3)cc2)c(C)cc1F	24.2			17.6
CCNC(=O)c1ccc(S(=O)(=O)c2ccc(CNC(=O)c3ccc4nccn4c3)cc2)cc1	6.3	12		
O=C(NCc1ccc(S(=O)(=O)c2ccc(-n3cccn3)cc2F)cc1)c1cc2ccncc2s1 [N-[(4-{[2-fluoro-4-(1H-pyrazol-1-yl)benzene]sulfonyl}phenyl)methyl]thieno[2,3-c]pyridine-2-carboxamide]			8	6
O=C(NCc1ccc(S(=O)(=O)c2cncc(F)c2)cc1)c1cc2ccncc2s1 [N-{[4-(5-fluoropyridine-3-sulfonyl)phenyl]methyl}thieno[2,3-c]pyridine-2-carboxamide]	6.4	9.7		
Cn1ncc2cccc(S(=O)(=O)c3ccc(CNC(=O)c4ccc5nccn5c4)cc3)c21 [N-{[4-(1-methyl-1H-indazole-7-sulfonyl)phenyl]methyl}imidazo[1,2-a]pyridine-6-carboxamide]	27.5	28.7		
CC(=O)c1ccccc1S(=O)(=O)c1ccc(CNC(=O)c2cc3ccncc3o2)cc1 [N-({4-[(2-acetylbenzene)sulfonyl]phenyl}methyl)furo[2,3-c]pyridine-2-carboxamide]	6.5			5.7
COc1ccc(S(=O)(=O)c2ccc(CNC(=O)c3cnc4[nH]ncc4c3)cc2)c(OC)c1	44.7			174
O=C(NCc1ccc(S(=O)(=O)c2ccc(Cl)c(C(F)(F)F)c2)cc1)c1cnc2nccn2c1	4.3	2.8		
Cc1c(Cl)cccc1S(=O)(=O)c1ccc(CNC(=O)c2ccc3nccn3c2)cc1	5			25.7
O=C(NCc1ccc(S(=O)(=O)c2ccc(F)c(C(F)(F)F)c2)cc1)c1cnc2[nH]ncc2c1 [N-[(4-{[4-fluoro-3-(trifluoromethyl)benzene]sulfonyl}phenyl)methyl]-1H-pyrazolo[3,4-b]pyridine-5-carboxamide]	13.8	39.4		
O=C(NCc1ccc(S(=O)(=O)c2cc(Cl)ccc2OCC(F)(F)F)cc1)c1ccc2nccn2c1	0.3	1		
Cc1cc(Cl)cnc1S(=O)(=O)c1ccc(CNC(=O)c2cc3ccncc3s2)cc1 [N-{[4-(5-chloro-3-methylpyridine-2-sulfonyl)phenyl]methyl}thieno[2,3-c]pyridine-2-carboxamide]	7.2	3.9		
O=C(NCc1ccc(S(=O)(=O)c2ccccc2)cc1)c1ccc2nncn2c1 [N-{[4-(benzenesulfonyl)phenyl]methyl}-[1,2,4]triazolo[4,3-a]pyridine-6-carboxamide]			> 10000	301
O=C(NCc1ccc(S(=O)(=O)Nc2ccc3cn[nH]c3c2)cc1)c1cc2cnccc2[nH]1 [N-({4-[(1H-indazol-6-yl)sulfamoyl]phenyl}methyl)-1H-pyrrolo[3,2-c]pyridine-2-carboxamide]			5440	135
CC(C)n1cc(S(=O)(=O)c2ccc(CNC(=O)c3ccc4nccn4c3)cc2)cn1 [N-({4-[1-(propan-2-yl)-1H-pyrazole-4-sulfonyl]phenyl}methyl)imidazo[1,2-a]pyridine-6-carboxamide]	2.7	8		

SMILES	IC50 (A2780 cells; SRB) [nM]	IC50 (NAMPT; NAMPT enzymatic assay) [nM]	IC50 (A2780 cells; SRB assay) [nM]	IC50 (NAMPT; NAMPT enzymatic reaction) [nM]
O=C(NCc1ccc(S(=O)(=O)c2cccc3c2sc2ccccc23)cc1)c1cc2ccncc2o1	12	8.7		
CCCOc1ccc(S(=O)(=O)c2ccc(CNC(=O)c3cc4ccncc4s3)cc2)cc1Cl	17.4			15.1
N#Cc1cccc(S(=O)(=O)c2ccc(CNC(=O)c3cc4cnccc4[nH]3)cc2)c1	11.3			12.1
Cc1nc(S(=O)(=O)c2ccc(CNC(=O)c3cnc4[nH]ncc4c3)cc2)cs1 [N-{[4-(2-methyl-1,3-thiazole-4-sulfonyl)phenyl]methyl}-1H-pyrazolo[3,4-b]pyridine-5-carboxamide]	20.7	82.8		
O=C(NCc1ccc(S(=O)(=O)c2ccc(N3CCOCC3)cc2)cc1)c1cnc2nccn2c1	4	1.7		
CCOc1cccc(S(=O)(=O)c2ccc(CNC(=O)c3ccc4nccn4c3)cc2)c1	3.1			5
O=C(NCc1ccc(S(=O)(=O)c2cccc3c2OCO3)cc1)c1cc2cnccc2[nH]1 [N-{[4-(2H-1,3-benzodioxole-4-sulfonyl)phenyl]methyl}-1H-pyrrolo[3,2-c]pyridine-2-carboxamide]	11.8	20.5		
COc1cc(C)c(S(=O)(=O)c2ccc(CNC(=O)c3cnc4nccn4c3)cc2)cc1C	13			5.2
COc1ccc(C)cc1S(=O)(=O)c1ccc(CNC(=O)c2cc3ccncc3o2)cc1	6.8			13.3
CCCCOc1ccc(S(=O)(=O)c2ccc(CNC(=O)c3cnc4nccn4c3)cc2)cc1F	3.1			1.2
O=C(NCc1ccc(S(=O)(=O)c2cccc(N3CCCC3)c2)cc1)c1ccc2ncsc2c1	1000 to 10000	8.8		
O=C(NCc1ccc(S(=O)(=O)c2ccccc2OC(F)(F)F)cc1)c1cnc2nccn2c1 [N-[(4-{[2-(trifluoromethoxy)benzene]sulfonyl}phenyl)methyl]imidazo[1,2-a]pyrimidine-6-carboxamide]	11.5	2.4		
O=C(NCc1ccc(S(=O)(=O)c2ccc(C(F)(F)F)c(Cl)c2)cc1)c1cc2ccncc2o1	6.2	7.9		
O=C(NCc1ccc(S(=O)(=O)c2ccccc2)cc1)c1c[nH]c2ccncc12 [N-{[4-(benzenesulfonyl)phenyl]methyl}-1H-pyrrolo[3,2-c]pyridine-3-carboxamide]	2060	1910		
O=C(NCc1ccc(S(=O)(=O)c2ccccc2Cl)cc1)c1cc2ccncc2s1	6.6			2.4
O=C(NCc1ccc(S(=O)(=O)c2cnc3ccccc3c2)cc1)c1cc2ccncc2s1 [N-{[4-(quinoline-3-sulfonyl)phenyl]methyl}thieno[2,3-c]pyridine-2-carboxamide]	0.9	4.4	0.8	3
O=C(NCc1ccc(S(=O)(=O)c2cc(F)ccc2Cl)cc1)c1cc2ccncc2s1	5.7			4.2
CN(C)c1ccc(S(=O)(=O)c2ccc(CNC(=O)c3cnc4nccn4c3)cc2)cn1 [N-({4-[6-(dimethylamino)pyridine-3-sulfonyl]phenyl}methyl)imidazo[1,2-a]pyrimidine-6-carboxamide]	5.9	2.7		
O=C(NCc1ccc(S(=O)(=O)N2CCCCC2)cc1)c1ccn2nnnc2c1 [N-{[4-(piperidine-1-sulfonyl)phenyl]methyl}-[1,2,3,4]tetrazolo[1,5-a]pyridine-7-carboxamide]			9	3
COc1c(C(F)(F)F)cccc1S(=O)(=O)c1ccc(CNC(=O)c2ccc3nccn3c2)cc1	14.8	21.9		
O=C(NCc1ccc(S(=O)(=O)N2CCCCC2)cc1)c1cc2ccncc2[nH]1 [N-{[4-(piperidine-1-sulfonyl)phenyl]methyl}-1H-pyrrolo[2,3-c]pyridine-2-carboxamide]			54	4
N#Cc1ccccc1S(=O)(=O)c1ccc(CNC(=O)c2cc3cnccc3[nH]2)cc1 [N-({4-[(2-cyanobenzene)sulfonyl]phenyl}methyl)-1H-pyrrolo[3,2-c]pyridine-2-carboxamide]	62.9			25.3
COc1ccc(S(=O)(=O)c2ccc(CNC(=O)c3ccc4nccn4c3)cc2)cc1OC [N-({4-[(3,4-dimethoxybenzene)sulfonyl]phenyl}methyl)imidazo[1,2-a]pyridine-6-carboxamide]	2.51			12
